Our source for the IC50 values is paper PMC10145010, “Tuning the Biological Activity of PI3Kδ Inhibitor by the Introduction of a Fluorine Atom Using the Computational Workflow” (Molecules, 2023).

By IC50 is commonly meant the concentration at which inhibition is half-maximal. High values mean a need for much substance, low ones inhibition by little substance.

The structures appear in SMILES notation.

The target of this test is T1, PI3Kδ (Homo sapiens, UniProt O00329).
T1 construct: purchased Merck Millipore
T1 sequence (O00329 whole entry): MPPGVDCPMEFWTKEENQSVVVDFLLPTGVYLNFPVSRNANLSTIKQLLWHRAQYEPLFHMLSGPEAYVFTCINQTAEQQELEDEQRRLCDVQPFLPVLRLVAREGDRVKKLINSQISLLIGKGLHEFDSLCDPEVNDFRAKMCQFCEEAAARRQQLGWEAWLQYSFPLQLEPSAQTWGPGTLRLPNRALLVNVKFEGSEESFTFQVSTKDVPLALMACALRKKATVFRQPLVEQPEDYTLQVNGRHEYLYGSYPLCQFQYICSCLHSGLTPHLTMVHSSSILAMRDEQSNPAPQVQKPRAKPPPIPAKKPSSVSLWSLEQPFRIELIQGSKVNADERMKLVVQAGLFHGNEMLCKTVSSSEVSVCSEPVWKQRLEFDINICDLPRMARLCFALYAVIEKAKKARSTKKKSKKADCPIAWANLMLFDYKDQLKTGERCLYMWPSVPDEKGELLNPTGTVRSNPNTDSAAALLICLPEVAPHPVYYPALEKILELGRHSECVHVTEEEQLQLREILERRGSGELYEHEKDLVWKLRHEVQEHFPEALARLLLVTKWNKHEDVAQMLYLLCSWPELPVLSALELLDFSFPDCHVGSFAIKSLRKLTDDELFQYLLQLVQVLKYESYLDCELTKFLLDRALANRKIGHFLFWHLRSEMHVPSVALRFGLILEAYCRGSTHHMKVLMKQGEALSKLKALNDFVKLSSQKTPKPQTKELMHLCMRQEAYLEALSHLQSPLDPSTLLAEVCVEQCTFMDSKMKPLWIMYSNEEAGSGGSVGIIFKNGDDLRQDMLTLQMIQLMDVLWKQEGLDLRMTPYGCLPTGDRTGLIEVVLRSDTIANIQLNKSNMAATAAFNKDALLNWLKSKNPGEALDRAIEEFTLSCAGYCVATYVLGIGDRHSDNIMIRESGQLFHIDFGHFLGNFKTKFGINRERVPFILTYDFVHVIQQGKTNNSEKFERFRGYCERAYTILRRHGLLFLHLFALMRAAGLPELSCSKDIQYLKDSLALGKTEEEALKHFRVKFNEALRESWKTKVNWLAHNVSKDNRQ
T1 sequence (P27986 whole entry partner): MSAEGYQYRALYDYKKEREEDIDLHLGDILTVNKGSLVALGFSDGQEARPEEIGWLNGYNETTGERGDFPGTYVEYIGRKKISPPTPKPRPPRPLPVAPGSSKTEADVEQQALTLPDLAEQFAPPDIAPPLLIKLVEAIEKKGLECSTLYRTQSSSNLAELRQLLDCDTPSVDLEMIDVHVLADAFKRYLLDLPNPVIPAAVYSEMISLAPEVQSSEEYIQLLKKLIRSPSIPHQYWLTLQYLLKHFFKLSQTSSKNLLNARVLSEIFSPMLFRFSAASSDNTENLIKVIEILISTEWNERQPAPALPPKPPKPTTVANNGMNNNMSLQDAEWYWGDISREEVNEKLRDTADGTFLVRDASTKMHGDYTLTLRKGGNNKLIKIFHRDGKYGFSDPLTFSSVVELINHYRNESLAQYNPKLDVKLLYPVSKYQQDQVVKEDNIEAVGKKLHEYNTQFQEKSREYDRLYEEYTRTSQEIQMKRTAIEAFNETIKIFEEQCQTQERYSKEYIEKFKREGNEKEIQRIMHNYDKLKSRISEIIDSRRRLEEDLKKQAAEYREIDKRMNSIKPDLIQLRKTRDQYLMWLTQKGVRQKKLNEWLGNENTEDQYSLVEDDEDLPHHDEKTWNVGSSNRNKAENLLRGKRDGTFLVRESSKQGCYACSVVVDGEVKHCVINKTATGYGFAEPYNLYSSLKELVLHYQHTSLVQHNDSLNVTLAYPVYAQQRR
Kind of test: In vitro PI3Kδ inhibition assay (ADP-Glo kinase assay). Type of test: biochemical. The following applies: mean from two independent experiments, PIP2 substrate 30 μM, 25 °C, 1 h. The procedure: All compounds were tested by a biochemical assay that measured the inhibition of phosphatidylinositol […] production by PI3K isoform. The potency of the tested compounds was assessed by determining the ability of PI3Kδ enzymes (Merck Millipore) to convert ATP to ADP during an enzymatic reaction in the presence of these compounds at decreasing doses. The experiments were carried out using the ADP-Glo kinase assay kit (Promega), according to the manufacturer’s protocol. PIP2 lipid vesicles containing phosphoserine (ThermoFisher Scientific, Waltham, MA, USA) were used as a substrate in the enzymatic reaction. The composition of the reaction mixture and reaction conditions for PI3Kδ were as follows: concentration of PI3Kδ enzyme: 10 ng; reaction temperature and time: 25 °C and 1 h; final concentration of PIP2 substrate: 30 μM; and reaction buffer: 50 mM of HEPES (pH 7.5), 50 mM NaCl, 3 mM MgCl2, and 0.025 mg/mL of BSA.
After the reaction, the ADP-Glo reagent and the kinase detection reagent were sequentially added. The reaction mixture was incubated for 40 min (25 °C, 600 rpm) after the addition of each reagent. Finally, luminescence intensity was measured and the IC50 value was calculated using GraphPad Prism 7 software (GraphPad, Boston, MA, USA). The results were presented as the mean value of IC50 obtained from at least two independent experiments.
A general note: In ADP-Glo the light output rises with the ADP produced.
Turning to `CC(C)(C)N1CCN(Cc2nn3c(N4CCOCC4)cc(-n4c(C(F)F)nc5ccccc54)nc3c2Cl)CC1` [Compound 4, 1-{2-[(4-Tert-butylpiperazin-1-yl)methyl]-3-chloro-7-(morpholin-4-yl)pyrazolo[1,5-a]pyrimidin-5-yl}-2-(difluoromethyl)-1H-benzimidazole], the midpoint of inhibition, the IC50, lay at 44 nM.
The figure for `CC(C)(C)N1CCN(Cc2nn3c(N4CCOCC4)cc(-n4c(C(F)F)nc5ccccc54)nc3c2Br)CC1` [Compound 5, 1-{3-Bromo-2-[(4-tert-butylpiperazin-1-yl)methyl]-7-(morpholin-4-yl)pyrazolo[1,5-a]pyrimidin-5-yl}-2-(difluoromethyl)-1H-benzimidazole] is 50 nM.
With `FC(F)c1nc2ccccc2n1-c1cc(N2CCOCC2)n2nc(CN3CCN(Cc4ccccc4)CC3)cc2n1` [Compound 6, 1-{2-[(4-Benzylpiperazin-1-yl)methyl]-7-(morpholin-4-yl)pyrazolo[1,5-a]pyrimidin-5-yl}-2-(difluoromethyl)-1H-benzimidazole] the figure was 118 nM; with `Fc1ccccc1CN1CCN(Cc2cc3nc(-n4c(C(F)F)nc5ccccc54)cc(N4CCOCC4)n3n2)CC1` [Compound 7], 640 nM.
As for `Fc1cccc(CN2CCN(Cc3cc4nc(-n5c(C(F)F)nc6ccccc65)cc(N5CCOCC5)n4n3)CC2)c1` [Compound 8], the IC50 turned out to be 751 nM.
Take `Fc1ccc(CN2CCN(Cc3cc4nc(-n5c(C(F)F)nc6ccccc65)cc(N5CCOCC5)n4n3)CC2)cc1` [Compound 9]: the IC50 was 489 nM.
The figure for `O=C(c1cc2nc(-n3c(C(F)F)nc4ccccc43)cc(N3CCOCC3)n2n1)N1CCN(Cc2ccccc2)CC1` [Compound 10, 1-[2-(4-Benzylpiperazine-1-carbonyl)-7-(morpholin-4-yl)pyrazolo[1,5-a]pyrimidin-5-yl]-2-(difluoromethyl)-1H-benzimidazole] is 275 nM.
`O=C(c1cc2nc(-n3c(C(F)F)nc4ccccc43)cc(N3CCOCC3)n2n1)N1CCN(Cc2ccccc2F)CC1` [Compound 11, 2-(Difluoromethyl)-1-(2-{4-[(2-fluorophenyl)methyl]piperazine-1-carbonyl}-7-(morpholin-4-yl)pyrazolo[1,5-a]pyrimidin-5-yl)-1H-benzimidazole] gave an IC50 of 212 nM.
`O=C(c1cc2nc(-n3c(C(F)F)nc4ccccc43)cc(N3CCOCC3)n2n1)N1CCN(Cc2cccc(F)c2)CC1` [Compound 12, 2-(Difluoromethyl)-1-(2-{4-[(3-fluorophenyl)methyl]piperazine-1-carbonyl}-7-(morpholin-4-yl)pyrazolo[1,5-a]pyrimidin-5-yl)-1H-benzimidazole] registered a concentration for half-maximal inhibition (IC50) of 92 nM.
The figure for `O=C(c1cc2nc(-n3c(C(F)F)nc4ccccc43)cc(N3CCOCC3)n2n1)N1CCN(Cc2ccc(F)cc2)CC1` [Compound 13, 2-(Difluoromethyl)-1-(2-{4-[(4-fluorophenyl)methyl]piperazine-1-carbonyl}-7-(morpholin-4-yl)pyrazolo[1,5-a]pyrimidin-5-yl)-1H-benzimidazole] is 181 nM.
